This is an account of results in patent US7696212B2, “Xanthine derivatives, the preparation thereof and their use as pharmaceutical compositions” (Boehringer Ingelheim Pharma GmbH and Co. KG, priority 2002, dated 2010).

pIC50: −log10 of the molar value. Counter-ions that a name gives are not always drawn.

For the first series, the target named is T1, DPP-IV (Homo sapiens, UniProt P27487).
T1 construct: an extract of human colon carcinoma cell line Caco-2 is used as the DPP IV source; endogenous in cells; host or cells: Caco-2 (human colon carcinoma), differentiated to induce DPP-IV expression; solubilised in Nonidet-P40 buffer
T1 sequence (P27487 whole entry): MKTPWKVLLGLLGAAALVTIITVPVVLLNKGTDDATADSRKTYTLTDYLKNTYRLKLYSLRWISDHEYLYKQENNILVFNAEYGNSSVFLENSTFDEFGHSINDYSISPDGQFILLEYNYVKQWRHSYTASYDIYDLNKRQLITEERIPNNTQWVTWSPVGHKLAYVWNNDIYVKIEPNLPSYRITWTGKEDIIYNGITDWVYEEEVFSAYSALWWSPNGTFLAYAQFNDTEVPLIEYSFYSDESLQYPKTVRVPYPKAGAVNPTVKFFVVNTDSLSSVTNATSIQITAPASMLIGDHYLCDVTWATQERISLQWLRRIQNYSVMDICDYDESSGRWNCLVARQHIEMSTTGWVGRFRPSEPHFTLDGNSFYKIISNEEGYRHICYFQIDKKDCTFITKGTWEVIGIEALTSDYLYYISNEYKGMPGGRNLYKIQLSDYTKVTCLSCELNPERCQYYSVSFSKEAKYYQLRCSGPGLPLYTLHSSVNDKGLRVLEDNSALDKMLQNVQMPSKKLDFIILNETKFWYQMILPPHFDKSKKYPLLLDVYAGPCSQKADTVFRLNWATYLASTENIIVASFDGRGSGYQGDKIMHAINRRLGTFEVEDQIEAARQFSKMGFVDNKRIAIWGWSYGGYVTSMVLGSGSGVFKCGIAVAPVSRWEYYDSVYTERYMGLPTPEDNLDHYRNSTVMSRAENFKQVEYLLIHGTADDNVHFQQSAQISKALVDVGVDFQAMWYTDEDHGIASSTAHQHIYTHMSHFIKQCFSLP
The series is described as follows: DPP-IV assay with extract of Caco-2 cells as DPP IV source, AFC substrate, fluorescence. It is filed as biochemical. Particulars: extract of human colon carcinoma cell line Caco-2 as DPP IV source; substrate 100 μM; 60 minutes at ambient temperature; read-out: DPP IV inhibition IC50. The method, then: The differentiation of the cells in order to induce the DPP-IV expression was carried out as described by Reiher et al. in an article entitled “Increased expression of intestinal cell line Caco-2”, which appeared in Proc. Natl. Acad. Sci. Vol. 90, pages 5757-5761 (1993). The cell extract was obtained from cells solubilised in a buffer (10 mM Tris HCl, 0.15 M NaCl, 0.04 t.i.u. aprotinin, 0.5% Nonidet-P40, pH 8.0) by centrifuging at 35,000 g for 30 minutes at 4° C. (to remove cell debris).
The DPP-IV assay was carried out as follows:
50 μl substrate solution (AFC; AFC is amido-4-trifluoromethylcoumarin), final concentration 100 μM, were placed in black microtitre plates. 20 μl of assay buffer (final concentrations 50 mM Tris HCl pH 7.8, 50 mM NaCl, 1% DMSO) was pipetted in. The reaction was started by adding 30 μl of solubilised Caco-2 protein (final concentration 0.14 μg of protein per well). The test substances to be investigated were typically added prediluted in 20 μl, and the volume of assay buffer was then reduced accordingly. The reaction was carried out at ambient temperature, incubating for 60 minutes. Then the fluorescence was measured in a Victor 1420 Multilabel Counter, the excitation wavelength being 405 nm and the emission wavelength being 535 nm. Blank readings (corresponding to 0% activity) were obtained in mixtures without any Caco-2 protein (volume replaced by assay buffer), control values (corresponding to 100% activity) were obtained in mixtures with no substance added. […]
For the compound `CC#CCn1c(N2CCCC(N)C2)nc2c1c(=O)n(Cc1nc3ccccc3c3ncccc13)c(=O)n2C` (centres unmarked) [1(25), 1-[(benzo[h][1,6]naphthyridin-5-yl)methyl]-3-methyl-7-(2-butyn-1-yl)-8-(3-amino-piperidin-1-yl)-xanthine], the pIC50 was 8.15.

For the compound `CC#CCn1c(N2CCC[C@@H](N)C2)nc2c1c(=O)n(Cc1cc3nccnc3c3ccccc13)c(=O)n2C` [1(30), 1-[(benzo[f]quinoxalin-6-yl)methyl]-3-methyl-7-(2-butyn-1-yl)-8-((R)-3-amino-piperidin-1-yl)-xanthine], the pIC50 is 8.52.

As for `CC#CCn1c(N2CCCC(N)C2)nc2c1c(=O)n(Cc1nc3ncccc3c3ccccc13)c(=O)n2C` (centres unmarked) [1(27), 1-[(benzo[c][1,8]naphthyridin-6-yl)methyl]-3-methyl-7-(2-butyn-1-yl)-8-(3-amino-piperidin-1-yl)-xanthine], the pIC50 was 8.70.

`CC(C)=CCn1c(N2CCCC(N)C2)nc2c1c(=O)n(CC1=CS(=O)(=O)N(C)c3ccccc31)c(=O)n2C` (centres unmarked) [Example 1, 1-[(1-methyl-2,2-dioxo-1H-benzo[c][1,2]thiazin-4-yl)methyl]-3-methyl-7-(3-methyl-2-buten-1-yl)-8-(3-amino-piperidin-1-yl)-xanthine]: the pIC50 is 7.89.

As for `CC#CCn1c(N2CCC[C@@H](N)C2)nc2c1c(=O)n(Cc1nc3ccccc3c3ccccc13)c(=O)n2C1CC1` [1(20), 1-[(phenanthridin-6-yl)methyl]-3-cyclopropyl-7-(2-butyn-1-yl)-8-((R)-3-amino-piperidin-1-yl)-xanthine], the pIC50 is 8.00.

Consider `CC#CCn1c(N2CCC[C@@H](N)C2)nc2c1c(=O)n(Cc1nc3cccnc3c3ccccc13)c(=O)n2C` [1(28), 1-[(benzo[c][1,5]naphthyridin-6-yl)methyl]-3-methyl-7-(2-butyn-1-yl)-8-((R)-3-amino-piperidin-1-yl)-xanthine], for which the pIC50 is 8.70.

On to `CC#CCn1c(N2CCC[C@@H](N)C2)nc2c1c(=O)n(Cc1nc3ccccc3c3ccccc13)c(=O)n2C` [1(33), 1-[(phenanthridin-6-yl)methyl]-3-methyl-7-(2-butyn-1-yl)-8-((R)-3-amino-piperidin-1-yl)-xanthine], for which the pIC50 is 8.40.

As to `CC(C)=CCn1c(N2CCCC(N)C2)nc2c1c(=O)n(/C=C1\NC(=O)c3ccccc31)c(=O)n2C` (centres unmarked) [Example 3, 1-[(3-oxo-2,3-dihydro-isoindol-1-ylidene)methyl]-3-methyl-7-(3-methyl-2-buten-1-yl)-8-(3-amino-piperidin-1-yl)-xanthine], the pIC50 is 7.70.

Turning to `CC#CCn1c(N2CCCC(N)C2)nc2c1c(=O)n(CC1=NC(C)(C(=O)OC)Cc3ccccc31)c(=O)n2C` (centres unmarked) [1(1), 1-[(3-methoxycarbonyl-3-methyl-3,4-dihydro-isoquinolin-1-yl]methyl]-3-methyl-7-(2-butyn-1-yl)-8-(3-amino-piperidin-1-yl)-xanthine], the pIC50 is 7.49.

For the compound `C/C=C/Cn1c(N2CCC[C@@H](N)C2)nc2c1c(=O)n(CC1=NCC(=O)Nc3ccccc31)c(=O)n2C` [Example 1(2), 1-[(2-oxo-2,3-dihydro-1H-benzo[e][1,4]diazepin-5-yl)methyl]-3-methyl-7-((E)-2-buten-1-yl)-8-((R)-3-amino-piperidin-1-yl)-xanthine], the negative logarithm of the IC50 (pIC50) was 8.22.

Consider `CC#CCn1c(N2CCCC(N)C2)nc2c1c(=O)n(CC1=NCCOc3ccccc31)c(=O)n2C` (centres unmarked) [Example 2, 1-[(2,3-dihydro-benzo[f][1,4]oxazepin-5-yl)methyl]-3-methyl-7-(2-butyn-1-yl)-8-(3-amino-piperidin-1-yl)-xanthine], for which the pIC50 was 8.22.

Consider `CC#CCn1c(N2CCCC(N)C2)nc2c1c(=O)n(Cc1cn3c(ccc4ccccc43)n1)c(=O)n2C` (centres unmarked) [1(32)], for which the pIC50 is 8.40.

On to `CC#CCn1c(N2CCCC(N)C2)nc2c1c(=O)n(Cc1ccc3nonc3c1)c(=O)n2C` (centres unmarked) [1(15), 1-[(benzo[1,2,5]oxadiazol-5-yl)methyl]-3-methyl-7-(2-butyn-1-yl)-8-(3-amino-piperidin-1-yl)-xanthine], for which the pIC50 is 7.96.

Consider `CC#CCn1c(N2CCCC(N)C2)nc2c1c(=O)n(Cc1nc3ccccc3c3ccnn13)c(=O)n2C` (centres unmarked) [1(26), 1-[(pyrazolo[1,5-c]quinazolin-5-yl)methyl]-3-methyl-7-(2-butyn-1-yl)-8-(3-amino-piperidin-1-yl)-xanthine], for which the pIC50 is 8.15.

For `CC#CCn1c(N2CCC[C@@H](N)C2)nc2c1c(=O)n(CC1=Nc3cccc4cccc(c34)N1)c(=O)n2C` [1(29), 1-[(1H-perimidin-2-yl)methyl]-3-methyl-7-(2-butyn-1-yl)-8-((R)-3-amino-piperidin-1-yl)-xanthine], the pIC50 was 8.52.

As to `CC#CCn1c(N2CCCC(N)C2)nc2c1c(=O)n(CC1=Nc3ccccc3CN1)c(=O)n2C` (centres unmarked) [1(10), 1-[(3,4-dihydro-quinazolin-2-yl)methyl]-3-methyl-7-(2-butyn-1-yl)-8-(3-amino-piperidin-1-yl)-xanthine], the pIC50 was 8.10.

Consider `CC#CCn1c(N2CCC[C@@H](N)C2)nc2c1c(=O)n(CC1=Nc3ccccc3Oc3ccccc31)c(=O)n2C` [1(8), 1-[(dibenzo[b,f][1,4]oxazepin-11-yl)methyl]-3-methyl-7-(2-butyn-1-yl)-8-((R)-3-amino-piperidin-1-yl)-xanthine], for which the pIC50 is 8.40.

As for `CC#CCn1c(N2CCCC(N)C2)nc2c1c(=O)n(Cc1nc3c(c4ccccc14)CCCC3)c(=O)n2C` (centres unmarked) [1(4), 1-[(1,2,3,4-tetrahydro-phenanthridin-6-yl)methyl]-3-methyl-7-(2-butyn-1-yl)-8-(3-amino-piperidin-1-yl)-xanthine x trifluoroacetic acid], the pIC50 is 8.30.

Turning to `CC#CCn1c(N2CCCC(N)C2)nc2c1c(=O)n(Cc1nc3ccccc3c3ccccc13)c(=O)n2C` (centres unmarked) [1(3), 1-[(phenanthridin-6-yl)methyl]-3-methyl-7-(2-butyn-1-yl)-8-(3-amino-piperidin-1-yl)-xanthine-dihydrochloride], the pIC50 is 8.30.

`CC#CCn1c(N2CCCC(N)C2)nc2c1c(=O)n(CC1=NC(C(F)(F)F)Cc3ccccc31)c(=O)n2C` (centres unmarked) [1(7), 1-[(3-trifluoromethyl-3,4-dihydro-isoquinolin-1-yl)methyl]-3-methyl-7-(2-butyn-1-yl)-8-(3-amino-piperidin-1-yl)-xanthine x trifluoroacetic acid]: the pIC50 was 7.96.

Turning to `CC#CCn1c(N2CCCC(N)C2)nc2c1c(=O)n(CC1=Nc3ccccc3N(C)c3ccccc31)c(=O)n2C` (centres unmarked) [1(12), 1-[(5-methyl-5H-dibenzo[b,e][1,4]diazepin-11-yl)methyl]-3-methyl-7-(2-butyn-1-yl)-8-(3-amino-piperidin-1-yl)-xanthine], the negative-log IC50 (pIC50) is 7.85.

The next series has as its system rats. The series is described as follows: Tolerability after oral administration to rats (behaviour). The series is classed as in vivo, rat. To be noted: 10 mg/kg by oral route.
On to `C/C=C/Cn1c(N2CCC[C@@H](N)C2)nc2c1c(=O)n(CC1=NCC(=O)Nc3ccccc31)c(=O)n2C` [Example 1(2), 1-[(2-oxo-2,3-dihydro-1H-benzo[e][1,4]diazepin-5-yl)methyl]-3-methyl-7-((E)-2-buten-1-yl)-8-((R)-3-amino-piperidin-1-yl)-xanthine], for which the “changes in the animals' behaviour” value is given as “no changes in the animals' behaviour could be detected”.

Test system in a further series: not given
Experiment: not given
Settings: not given
Turning to `CC(C)=CCn1c(N2CCCC(N)C2)nc2c1c(=O)n(CC1=CS(=O)(=O)N(C)c3ccccc31)c(=O)n2C` (centres unmarked) [Example 1, 1-[(1-methyl-2,2-dioxo-1H-benzo[c][1,2]thiazin-4-yl)methyl]-3-methyl-7-(3-methyl-2-buten-1-yl)-8-(3-amino-piperidin-1-yl)-xanthine], the melting point is 200 to 205 °C.
